Data: article PMC3203342 (Nature, 2011)

Tests used:
[1] = molecular target: T1, Or59b/Orco in ab2A OSN (Drosophila melanogaster, UniProt Q9W1P8); experiment: single sensillum recording, dose-response; format: cell-based; settings: native ab2A neuron; vapour; inhibitor of spontaneous activity
T1 sequence (Q9W1P8 1-398): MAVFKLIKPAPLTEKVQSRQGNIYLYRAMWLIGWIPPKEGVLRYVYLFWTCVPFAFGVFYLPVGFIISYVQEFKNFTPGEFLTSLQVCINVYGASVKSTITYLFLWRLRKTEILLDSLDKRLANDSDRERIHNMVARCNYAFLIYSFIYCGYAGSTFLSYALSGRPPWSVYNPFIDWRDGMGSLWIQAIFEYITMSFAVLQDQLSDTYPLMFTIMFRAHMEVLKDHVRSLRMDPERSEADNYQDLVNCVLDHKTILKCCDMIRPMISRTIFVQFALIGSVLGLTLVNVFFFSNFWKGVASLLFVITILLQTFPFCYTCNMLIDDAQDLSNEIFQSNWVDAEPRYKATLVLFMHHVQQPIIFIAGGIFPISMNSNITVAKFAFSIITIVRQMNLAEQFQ
T1 sequence (Q9VNB5 1-486 partner): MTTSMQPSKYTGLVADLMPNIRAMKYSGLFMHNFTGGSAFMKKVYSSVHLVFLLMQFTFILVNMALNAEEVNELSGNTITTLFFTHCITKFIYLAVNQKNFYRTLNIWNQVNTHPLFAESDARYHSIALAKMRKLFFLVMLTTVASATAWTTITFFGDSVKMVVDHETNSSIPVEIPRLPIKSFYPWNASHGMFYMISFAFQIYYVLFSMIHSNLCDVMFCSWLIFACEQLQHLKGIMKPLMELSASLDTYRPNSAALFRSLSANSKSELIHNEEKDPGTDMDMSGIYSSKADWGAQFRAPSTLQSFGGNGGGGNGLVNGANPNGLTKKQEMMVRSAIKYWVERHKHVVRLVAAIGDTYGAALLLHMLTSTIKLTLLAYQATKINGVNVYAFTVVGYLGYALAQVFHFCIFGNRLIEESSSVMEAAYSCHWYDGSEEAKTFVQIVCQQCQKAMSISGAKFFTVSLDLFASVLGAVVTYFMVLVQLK

[2] = molecular target: T2, Or85a/Orco in ab2B OSN (Drosophila melanogaster, UniProt Q9VHS4); experiment: single sensillum recording, dose-response; format: cell-based; settings: native ab2B neuron; vapour; agonist
T2 sequence (Q9VHS4 1-397): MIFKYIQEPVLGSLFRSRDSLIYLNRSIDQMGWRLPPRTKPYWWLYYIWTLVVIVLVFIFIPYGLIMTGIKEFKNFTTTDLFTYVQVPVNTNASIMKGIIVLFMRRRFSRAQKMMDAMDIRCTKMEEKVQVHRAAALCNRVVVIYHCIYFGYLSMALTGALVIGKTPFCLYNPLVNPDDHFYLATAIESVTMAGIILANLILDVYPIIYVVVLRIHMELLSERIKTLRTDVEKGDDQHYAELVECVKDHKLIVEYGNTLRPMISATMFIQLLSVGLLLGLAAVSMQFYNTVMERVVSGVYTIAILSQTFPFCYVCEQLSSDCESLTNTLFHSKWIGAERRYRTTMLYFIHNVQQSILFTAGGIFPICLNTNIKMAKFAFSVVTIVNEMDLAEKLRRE
T2 sequence (Q9VNB5 1-486 partner): T1 sequence (Q9VNB5 1-486 partner)

| Compound | Δ spikes/s [1] | Δ spikes/s [2] |
| --- | --- | --- |
| C=C[C@](C)(O)CCC=C(C)C [linalool] | DEET interfered with inhibition of Or59b/Orco by 1-octen-3-ol, 1-octanol, and linalool |  |
| C=CC(O)CCCCC (stereo not drawn) [1-octen-3-ol] |  | activating the ab2B neuron expressing Or85a/Orco (Fig. 1e) |
| CCCCCCCCO [1-octanol] | DEET interfered with inhibition of Or59b/Orco by 1-octen-3-ol, 1-octanol, and linalool |  |
